The values below come from patent US20260007746A1, “COMPOSITIONS AND METHODS FOR TREATMENT OF INFLAMMATORY DISORDERS” (priority 2020, published 2026).

Structures are written as SMILES.

The test system of this test is ConA-stimulated splenocytes. The test can be described thus: Mitogen proliferative assay (MSC:splenocyte co-culture, BrdU). It counts as cell-based, mouse. Conditions: mAdMSC:splenocyte 1:20 and 1:10; with or without HA or E-selectin pre-incubation. As for the experimental part: Mitogen proliferative assays were performed as described previously (Yañez et al., 2006; Yanez et al., 2010). Briefly, splenocytes were isolated from C57BL/6 and BALB/c mice spleen cell suspensions by passage through 40-μm nylon cell strainers (Becton Dickinson), followed by red blood lysis with 0.83% ammonium chloride in 0.01 M Tris-HCl buffer pH 7.5 (Sigma-Aldrich). To induce splenocyte proliferation, 1×10^5 splenocytes were resuspended in RPMI 1640 medium (Gibco, Carlsbad, CA, United States) supplemented with 10% FBS (proliferation medium) and treated with 10 μg/ml concanavalin A (ConA) (Sigma-Aldrich). To assess for effect(s) on splenocyte proliferation, MSCs were resuspended in complete medium and seeded in wells together with splenocytes at decreasing ratios of MSC:splenocyte (from 1:1 to 1:100). After 3 days of MSC:splenocyte co-cultures, splenocyte proliferation was measured using an ELISA BrdU colorimetric kit (Roche Diagnostics). In brief, BrdU labeling reagent was added to wells 16 h before determination. Then, cells were fixed, DNA denatured and incubated with an anti-BrdU-POD antibody. After washing and substrate addition, absorbance was measured. In some experiments, UmAdMSCs and FucmAdMSCs, or FuchAdMSCs and FuchBMMSCs, were treated with sialidase from Vibrio cholerae (0.1 U/ml, Roche Diagnostics) to remove terminal sialic acids (i.e., sialUmAdMSCs and sialFucmAdMSCs, or sialFuchAdMSCs and sialFuchBMMSCs). As indicated, mMSCs or hMSCs were cultured for 24 h or 72 h with different concentrations of mE-Ig chimera or of hyaluronic acid (HA, from rooster comb; Sigma-Aldrich) for 24 h or 72 h following described protocols (Burdick et al., 2006; Thankamony and Sackstein, 2011). Briefly, mE-Ig or HA were immobilized on plates. […] In some experiments, cultures of mAdMSCs seeded on E-selectin and/or HA for 72 h were washed, then co-cultured in presence of continuous E-selectin and/or HA with murine splenocytes (at MSC:splenocyte ratio of 1:20) for 72 h in presence of ConA, and splenocyte proliferation was assessed. […]
On to `Cn1cc(CC(N)C(=O)O)c2ccccc21` (racemic) [1-methyl-DL-tryptophan], for which the “proliferation of mitogen-stimulated splenocytes in mAdMSC co-cultures with inhibitor” value (from here on “proliferation … with inhibitor”) was “significantly rescued the proliferation”.

Take `CNC(=N)NCCC[C@H](N)C(=O)O` [N^G-monomethyl-L-arginine]: the “proliferation … with inhibitor” value is “significantly rescued the proliferation”.

Consider `NC(=O)c1ccc(-c2nc(-c3ccc4c(c3)OCO4)c(-c3ccccn3)[nH]2)cc1` [SB-431542], for which the “proliferation … with inhibitor” value is recorded as “significantly rescued the proliferation”.
